Measured values reported in patent publication US20250017886A1, “FORMULATIONS AND METHODS FOR INCREASING CREATININE LEVELS IN PLASMA, EXTRACELLULAR FLUID AND/OR INTRACELLULAR COMPARTMENTS” (Vireo Systems, Inc., priority 2023, published 2025).
≈ marks a conversion by molar mass, not a printed value. Entries after “also recorded” stand apart in the source; their conditions may differ. Where a name gives a salt, the structure may show the parent alone. One block for each molecule: values may come before it.

What was measured:
[1] = Saturated aqueous solubility determination (HPLC); format: physicochemical; conditions: for Ratio (relative to CM): solubility relative to creatine monohydrate; for solubility at 1.5 h: thermodynamic from solid, deionized water, 25° C.
Protocol: After 1.5 hour, the saturated solutions were vortexed and 2-ml aliquots removed and centrifuged in microcentrifuge tubes at 11,000 rpm for 5 min. Concentrations were analyzed by HPLC by diluting 500 μL of supernatant with mobile phase (500 μL). The mean±standard deviation of the saturation solubility for each antiviral therapeutic compound is calculated from the corresponding standard curves.

[2] = Rat PK study, plasma levels after creatinine pronutrient dosing; format: in vivo, sprague-dawley male rats
Protocol: A rat PK study was performed to determine resulting plasma creatinine levels following creatinine pronutrient dosing. […] Levels of creatine, creatinine pronutrient, and creatinine in the plasma were measured over time. In this study, the specific creatinine pronutrient used was creatine ethyl ester hydrochloride. Blood samples were collected over a 4-hour period via femoral artery catheter. Muscle and brain tissue were collected at the end of the study. Liquid chromatography-mass spectrometry (LCMS) was used for analysis of samples. The area under the plasma concentration curve following oral dosing was compared to that obtained following IV administration. The creatinine pronutrient formulation data in Table 4 was generated from the creatinine data gathered in Example 4 using allometric dosing to determine the human dose equivalent for the labeled creatinine pronutrient (for a 70 kg human). In order to assess the relative bioavailability of the formulations (and to correct for the slightly different doses administered with various forms due to the different molecular weights), the AUC plasma uptake values observed for creatinine and the creatinine pronutrient formulation were entered into the following equation to produce a ratio: […]

[3] = system: hCMEC/d3 (human brain endothelial cells); assay: Bradykinin-induced permeability in microfluidic BBB culture model; format: cell-based; conditions: 1 mM CEE pretreatment 1-hour
Protocol: In an effort to determine the impact/effectiveness of creatinine pronutrient formulations made in accordance with the present disclosure, studies examined bradykinin-induced effects on endothelial permeability using a microfluidic blood-brain barrier (BBB) culture model consisting of hCMEC/d3 (human brain endothelial cells) grown on Mimeta microfluidic plates. More specifically, permeability studies were performed using the microfluidic BBB culture model under control conditions and following exposure to a low dose (10 nM) or high dose (10 μM) of bradykinin in either the presence or absence of creatine ethyl ester hydrochloride (CEE) as the creatinine pronutrient.
hCMEC/d3 cells in Mimeta microfluidic plate were pretreated for 1 hour with media or media+1 mM CEE. Thereafter, the cells were treated with a low concentration (10 nM) or high concentration (10 μM) of bradykinin. The permeability of a fluorescent dye (IRdye 800) was assessed after 30 minutes.

hBMEC/d3 cells = assay: Bradykinin-induced prostaglandin E2 release (PGE2 ELISA); format: cell-based; conditions: for inhibition of prostaglandin (PGE2) release: 1.0 mM, 1-hour preincubation, 10 μM bradykinin, at 6 and 24 hours, compared with 10 μM HOE 140
Protocol: In an effort to determine the impact/effectiveness of creatinine pronutrient formulations made in accordance with the present disclosure on decreasing prostaglandin release over a 24-hour period due to bradykinin exposure, hBMEC/d3 cells were pre-treated with a creatinine pronutrient of the present disclosure and then exposed to 10 μM bradykinin. More specifically, hBMEC/d3 cells were grown on T25 flasks to confluency. Media was removed and exchanged with endothelial cell media containing 0.1% BSA and (1) 1.0 mM CEE, (2) 1.0 mM creatine t-butyl ester hydrochloride (CtB), or (3) 10 μM HOE 140 (a known BR2 receptor antagonist). After a 1-hour incubation, bradykinin (10 μM) was added and samples of media removed and assayed for prostaglandin E2 (PGE2) at 3, 6 and 24 hours. The amount of PGE 2 secreted into the media by the cells was determined using a PGE2 ELISA and normalized to cell lysate protein content.

COX1 = COX1 (Homo sapiens, UniProt P23219); assay: COX activity, COX1; format: biochemical
COX1, sequence (P23219 24-599): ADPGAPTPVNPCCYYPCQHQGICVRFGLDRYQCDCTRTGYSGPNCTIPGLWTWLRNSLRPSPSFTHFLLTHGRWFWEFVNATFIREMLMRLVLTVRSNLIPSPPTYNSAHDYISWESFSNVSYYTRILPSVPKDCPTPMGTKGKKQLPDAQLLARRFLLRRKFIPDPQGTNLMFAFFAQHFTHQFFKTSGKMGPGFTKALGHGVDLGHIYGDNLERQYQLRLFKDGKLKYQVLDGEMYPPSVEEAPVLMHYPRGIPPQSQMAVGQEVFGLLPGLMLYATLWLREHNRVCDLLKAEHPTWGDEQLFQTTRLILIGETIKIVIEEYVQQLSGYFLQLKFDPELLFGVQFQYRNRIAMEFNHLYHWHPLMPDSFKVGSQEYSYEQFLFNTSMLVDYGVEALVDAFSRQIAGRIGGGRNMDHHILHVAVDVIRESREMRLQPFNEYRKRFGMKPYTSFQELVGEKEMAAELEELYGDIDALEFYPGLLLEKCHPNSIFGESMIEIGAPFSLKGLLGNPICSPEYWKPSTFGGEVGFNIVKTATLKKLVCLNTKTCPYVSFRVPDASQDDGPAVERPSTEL
From the text: (§1) The effects of the creatinine pronutrient on PGE2 release was not due to the inhibition of prostaglandin synthesis through cyclooxygenase (COX) as production of prostaglandins by either COX1 or COX2 was unaffected by CEE.

COX2 = molecular target: T1, COX2 (Homo sapiens, UniProt P35354); assay: COX activity, COX2; format: biochemical
T1 sequence (P35354 18-604): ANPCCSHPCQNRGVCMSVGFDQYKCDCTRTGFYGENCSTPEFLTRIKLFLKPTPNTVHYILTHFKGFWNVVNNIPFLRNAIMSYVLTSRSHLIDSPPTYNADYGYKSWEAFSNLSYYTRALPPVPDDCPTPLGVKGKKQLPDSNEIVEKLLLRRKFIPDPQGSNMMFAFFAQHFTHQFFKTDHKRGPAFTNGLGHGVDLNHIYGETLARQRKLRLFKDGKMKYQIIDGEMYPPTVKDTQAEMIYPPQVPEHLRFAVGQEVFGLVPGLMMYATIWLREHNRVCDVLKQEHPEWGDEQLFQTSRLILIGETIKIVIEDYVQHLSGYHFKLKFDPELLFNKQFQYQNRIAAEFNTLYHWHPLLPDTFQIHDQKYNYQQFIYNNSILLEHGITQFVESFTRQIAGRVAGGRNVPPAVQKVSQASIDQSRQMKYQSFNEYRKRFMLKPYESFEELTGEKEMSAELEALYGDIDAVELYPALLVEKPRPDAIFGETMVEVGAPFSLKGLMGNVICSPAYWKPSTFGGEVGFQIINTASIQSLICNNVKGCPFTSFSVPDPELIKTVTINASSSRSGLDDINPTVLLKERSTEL
From the text: as §1

[4] = Human single oral dose pharmacokinetics of creatinine (Ostojic et al. 2019); format: in vivo; conditions: plasma, oral 3 grams creatinine given with 3 grams creatine nitrate, computed from literature data, read-out: AUC(0-120m) (converted)
From the text: The creatinine data in Table 4 was generated from the data provided in Ostojic et al., Food Sci Nutr. 2019. […] In order to assess the relative bioavailability of the formulations (and to correct for the slightly different doses administered with various forms due to the different molecular weights), the AUC plasma uptake values observed for creatinine and the creatinine pronutrient formulation were entered into the following equation to produce a ratio: […]

[5] = human, oral 3 grams creatinine given with 3 grams creatine nitrate; cited from earlier work
[6] = cited from earlier work
[7] = system: human colon epithelial (Caco-2); assay: Creatinine uptake in Caco-2 cells; format: cell-based; conditions: Caco-2, 1 mM, 3-hour period; hydrochloride
[8] = system: human brain endothelial cells (HCMEC/d3); assay: Creatinine uptake in HCMEC/d3 cells; format: cell-based; conditions: HCMEC/d3, 1 mM, 3-hour period
Protocol: In an effort to determine the impact/effectiveness of a formulation made in accordance with the present disclosure on increasing creatinine delivery, different cell types were exposed to several of the formulations in Example 1. More specifically, cellular uptake studies were performed for formulations including CEE and CtB from Example 1. […] In other words, it remains unknown where there is a transporter involved in the accumulation of creatinine. Without being bound by any particular theory, if a transporter is involved for accumulation of creatinine, it may be the organic cation transporter 2 (OCT2) found in kidney tubule epithelial cells. The various cell lines discussed above were first exposed to 1 mM of creatinine (CRN), CEE, and CtB at 37° C. for a 3-hour incubation period at a pH 7.4. After incubation, the assay buffer was collected. The cells were then washed rapidly three times with ice-cold phosphate-buffered saline solution. […] More specifically, the creatinine content in cell lysates was determined using QuantichromTM Creatinine Assay Kit (DICT 500) from Bioassay Systems (Hayward, CA). The assay quantitatively measures creatinine without any pretreatment through an optimized Jaffe method. […] The intensity of the red, measured at 510 nm, is directly proportional to the concentration of creatinine in the sample. […]

[9] = system: hCMEC/d3 microfluidic culture model; assay: Permeability of microfluidic BBB model treated with cancer patient plasma; format: cell-based, human; conditions: for permeability coefficient: 1 mM CtB
[10] = rat, after 10 or 70 mg/kg oral or 10 mg/kg IV creatinine pronutrient

Ratio (relative to CM) [1]: >9
solubility at 1.5 h [1]: 205 mg/mL
creatinine delivered to the plasma as compared to creatinine ([2]; high and low doses): twice as much
creatine in plasma samples [2, 10]: no detectable amount
creatinine pronutrient in plasma samples [2, 10]: Small but measurable amounts
creatinine in plasma samples ([2]; rat, after creatinine pronutrient dosing, especially at the high dose): Substantial levels
production of prostaglandins by COX1 (COX1): unaffected
production of prostaglandins by COX2 (COX2): unaffected
Compound: CCOC(=O)CN(C)C(=N)N [CEE, creatine ethyl ester hydrochloride]
permeability coefficient of IRdye 800 ([3]; then 10 nM bradykinin (1.05×10^−8 without CEE)): 0.00343 ×10⁻⁶ cm/s
permeability coefficient of IRdye 800 ([3]; then 10 μM bradykinin (2.90×10^−8 without CEE)): 0.0142 ×10⁻⁶ cm/s
PGE release in response to bradykinin (hBMEC/d3 cells): prevents PGE release
inhibition of prostaglandin (PGE2) release (hBMEC/d3 cells): as effective at inhibiting prostaglandin release as the known BR2 receptor antagonist HOE 140

Ratio (relative to CM) [1]: >8
solubility at 1.5 h [1]: 178 ± 7.2 mg/mL (≈ 1120 mM)
Compound: CCOC(=O)CCNC(=N)N [Ethyl (α-guanido-methyl) ethonoate, ethyl (α-guanido-methyl) ethanoate]

Ratio (relative to CM) [1]: >29
solubility at 1.5 h [1]: > 600 mg/mL
Compound: CCOC(=O)CNC(=O)CN(C)C(=N)N [Creatine Glycinamide Ethyl Ester HCl, creatine glycinamide ethyl ester]

Ratio (relative to CM) [1]: <1.0
solubility at 1.5 h [1]: 15 to 20 mg/mL
Compound: CN(CC(=O)OC1CCCCC1)C(=N)N [Creatine Cyclohexyl Ester Tosylate, creatine cyclohexyl ester]

Ratio (relative to CM) [1]: >29
solubility at 1.5 h [1]: > 600 mg/mL
Compound: CC(C)CCOC(=O)CN(C)C(=N)N [Creatine Isopentyl Ester HCl, creatine isopentyl ester hydrochloride]

AUC [4]: 4600 ng·h/mL
Compound: CN1CC(=O)NC1=N [Creatinine, creatinine]
Cmax (plasma creatinine) [5]: 15300 ng/mL
Cmin (plasma creatinine) [5]: 11300 ng/mL
Tmax [5]: 1 h
solubility [6]: 23 mg/mL (≈ 203 mM)

Ratio (relative to CM) [1]: ≥18
solubility at 1.5 h [1]: 389 mg/mL
creatinine accumulation compared with 1 mM creatinine [7]: greater; also recorded: almost double
creatinine accumulation compared with 1 mM creatinine [8]: greater
Compound: CN(CC(=O)OC(C)(C)C)C(=N)N.Cl [CtB, creatine tert-butyl ester hydrochloride]
permeability coefficient ([9]; breast cancer patient CF80 6 month plasma, 24-hour treatment (2.78×10^−8 without CtB)): 0.00963 ×10⁻⁶ cm/s
permeability coefficient ([9]; breast cancer patient CF80 baseline plasma, 24-hour treatment (1.06×10^−8 without CtB)): 0.00297 ×10⁻⁶ cm/s
permeability increases produced by plasma samples from cancer patients ([9]; addition of 1 mM): attenuated
inhibition of prostaglandin (PGE2) release (hBMEC/d3 cells): as effective at inhibiting prostaglandin release as the known BR2 receptor antagonist HOE 140
